Columns and labels:
Format in all cases: in vivo, human
[1] = tested on: extensive-stage small cell lung cancer; assay: Clinical study of anlotinib in combination with etoposide in extensive-stage small cell lung cancer after second-line failure (Example 3); conditions: anlotinib hydrochloride capsules 12 mg qd d1-14 in combination with etoposide soft capsules 100 mg qd d1-10, 21-day cycle
Method: Patients with extensive-stage small cell lung cancer after the pathological diagnosis of small cell lung cancer and failure with second-line chemotherapy (having received two previous chemotherapy regimens) were administered with anlotinib in combination with etoposide.
The administration regimens are detailed below.
Etoposide soft capsules: once daily, oral administration before breakfast, 100 mg (by weight of etoposide comprised therein) each time, administered at d1-10 of each 21-day dosing cycle.
Anlotinib hydrochloride capsules: once daily, oral administration before breakfast, 12 mg each time, administered at d1-14 of each 21-day dosing cycle.
The interval between the two drugs was more than half an hour. If there was a missed dose, the interval needed to be confirmed that it was not shorter than 12 hours before the next dose, otherwise no more doses would be taken. During the administration, dosage adjustments could be made according to the degree of drug-related toxicity and possible therapeutic benefit of the patient. The dose could be adjusted to the following 2 levels for anlotinib: 10 mg and 8 mg. If a reduction of more than 2 dose levels was required, the treatment was discontinued. The dose of etoposide could be reduced to 50 mg. […]

[2] = tested on: small cell lung cancer (including ED-SCLC and LD-SCLC); assay: Clinical trial of EP or EC regimen (etoposide+cisplatin/carboplatin)+anlotinib in small cell lung cancer patients (Example 1)
Text: Patients who were pathologically diagnosed with small cell lung cancer (including ED-SCLC and LD-SCLC) with measurable lesions were divided into the following groups: two combination administration groups adopting a combination of either EP or EC regimen (etoposide+cisplatin/carboplatin)+anlotinib, and a control group adopting either EP or EC alone (etoposide+cisplatin/carboplatin). The administration regimens are detailed below.
In the combination administration group, patients received etoposide: 100 mg/m^2, i.v., for 120 min, administered at d1-3 of each 21-day dosing cycle; cisplatin: 75 mg/m^2, or carboplatin: AUC 5, i.v., for 120 min, administered at d1 of each 21-day dosing cycle; anlotinib, 12 mg/day, administered orally on an empty stomach in the morning at d1-14 of each 21-day dosing cycle. After 4-6 dosing cycles of combination treatment, anlotinib was used for maintenance treatment: 12 mg/day, administered orally on an empty stomach in the morning at d1-14 of each 21-day dosing cycle until progressive disease.
In the control group, patients received etoposide: 100 mg/m^2, i.v., for 120 min, administered at d1-3 of each 21-day dosing cycle; cisplatin: 75 mg/m^2 or carboplatin: AUC 5, i.v., for 120 min, administered at d1 of each 21-day dosing cycle.
The observation indexes are as follows: primary endpoint: progression-free survival (PFS); secondary endpoint: objective response rate (ORR), overall survival (OS), disease control rate (DCR), safety, and tolerability.
The clinical trial was implemented, and 31 patients were enrolled between February 2018 and October 2019.

small cell lung cancer [3] = assay: Clinical study of anlotinib in combination with irinotecan in relapsed small cell lung cancer (Example 2); conditions: anlotinib hydrochloride capsule 12 mg qd po d1-14 in combination with irinotecan 60-80 mg/m^2 i.v. d1 and d8, q3w
Text: Patients who have been histopathologically and cytologically diagnosed with small cell lung cancer, have previously received 1 systemic chemotherapy adopting platinum-based chemotherapy regimens, and relapsed or failed after treatment, excluding patients with non-small cell lung cancer (including small cell and non-small cell mixed types), were divided into a combination administration group and a single-drug chemotherapy control group. The administration regimens are detailed below.
Combination administration group: anlotinib hydrochloride capsule 12 mg qd po d1-14 and irinotecan 60-80 mg/m^2 i.v. d1 and d8; q3w, no more than 6 chemotherapy dosing cycles.
Single-drug chemotherapy control group: irinotecan 60-80 mg/m^2 i.v. d1 and d8; q3w, no more than 6 chemotherapy dosing cycles.
Patients who achieved complete response (CR), partial response (PR), and stable disease (SD) continued to be administered until progressive disease (PD), intolerable toxicity, or patients who required withdrawal or achieved progressive disease (PD) were discontinued. The efficacy evaluation observation indexes include progression-free survival (PFS), overall survival (OS), objective response rate (ORR), disease control rate (DCR), duration of response (DOR), quality of life score and drug safety.

small cell lung cancer [4] = assay: Clinical study of anlotinib in combination with sintilimab in relapsed small cell lung cancer (Example 5); conditions: anlotinib hydrochloride capsules 12 mg qd d1-14 in combination with sintilimab 200 mg i.v. d1, 21-day cycle
Method: Patients who have been histologically or cytologically confirmed pathologically diagnosed with small cell lung cancer, have previously received at least one systemic chemotherapy regimen and have relapsed were administered with anlotinib in combination with sintilimab. The administration regimens are detailed below.
Anlotinib hydrochloride capsules: once daily, oral administration before breakfast, 12 mg each time, administered at d1-14 of each 21-day dosing cycle, consecutive 2-week treatment and 1-week interruption.
Sintilimab: 200 mg, i.v. infusion, administered d1 of each 21-day dosing cycle.
All patients continued for a treatment period of up to 12 months, or until progressive disease, development of an intolerable toxic response, withdrawal of informed consent, death, or other event requiring discontinuation of treatment specified in the protocol, whichever occurred first.
The efficacy evaluation observation indexes include progression-free survival (PFS), overall survival (OS), objective response rate (ORR=CR+PR), disease control rate (DCR=CR+PR+SD) and drug safety.

[5] = anlotinib 12 mg/day in combination with EP or EC regimen, 31 patients
[6] = anlotinib 12 mg/day in combination with EP or EC regimen, of 31 patients
[7] = combination of anlotinib and EP or EC regimen

COc1cc2c(Oc3ccc4[nH]c(C)cc4c3F)ccnc2cc1OCC1(N)CC1 [anlotinib, 1-[[[4-(4-fluoro-2-methyl-1H-indol-5-yl)oxy-6-methoxyquinolin-7-yl]oxy]methyl]cyclopropylamine]
clinical benefits [1]: had clinical benefits | disease control rate (DCR) [2, 5]: 100% | objective response rate (ORR) [2, 5]: 74.2% | patients with complete response (CR) [2, 6]: 3 patients | patients with partial response (PR) [2, 6]: 20 patients | patients with progressive disease (PD) [2, 6]: 0 patients | median PFS (progression-free survival) ([2]; anlotinib 12 mg/day po d1-14 q21d in combination with EP or EC regimen (etoposide + cisplatin/carboplatin), then anlotinib maintenance, 31 patients): 8.9 months | clinical efficacy [2, 7]: good | safety [2, 7]: good | clinical benefits (small cell lung cancer [3]): had clinical benefits | clinical benefits (small cell lung cancer [4]): had clinical benefits | progression-free survival to date (small cell lung cancer [4]): up to 6 months

Reference: patent US20220193066A1, “QUINOLINE DERIVATIVE USED FOR COMBINATION TREATMENT OF SMALL CELL LUNG CANCER” (CHIA TAI TIANQING PHARMACEUTICAL GROUP CO., LTD., priority 2019, published 2022)
